From patent US5665745A, “Heterocyclic compounds and their preparation and use” (Eli Lilly and Company, priority 1995, dated 1997)
Like-named read-outs stand apart in the source and are kept apart here.

Columns and labels:
[1] = target: muscarinic acetylcholine receptors; assay: inhibition of specific binding of ^3 H-Oxotremorine-M (^3 H-Oxo); parameters: species or system rat (male Wistar; conditions: ^3 H-Oxotremorine 1.0 nM, rat cortex, 30 min. at 25° C.
Summary of the method: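 Rat cortex membranes (male Wistar) in 20 mM Hepes pH 7.4 incubated with 1.0 nM ^3H-Oxotremorine-M (final) and test compound for 30 min at 25 °C; arecoline defines non-specific binding. Bound radioactivity by filtration and scintillation counting; IC50 (nM) from a single concentration via Co/Cx mass-action formula, reflecting high- and medium-affinity sites.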

[2] = target: T1, muscarinic receptors (M1 -site, pirenzepine sensitive site) (Rattus norvegicus, UniProt P08482); assay: inhibition of ^3 HPRZ (pirenzepine, [N-methyl-^3 H]) binding to rat cerebral cortex membranes; parameters: species or system rat (male Wistar
T1 construct: from tissue; host or cells: cerebral cortex membranes of male Wistar rats
T1 sequence (P08482 1-460): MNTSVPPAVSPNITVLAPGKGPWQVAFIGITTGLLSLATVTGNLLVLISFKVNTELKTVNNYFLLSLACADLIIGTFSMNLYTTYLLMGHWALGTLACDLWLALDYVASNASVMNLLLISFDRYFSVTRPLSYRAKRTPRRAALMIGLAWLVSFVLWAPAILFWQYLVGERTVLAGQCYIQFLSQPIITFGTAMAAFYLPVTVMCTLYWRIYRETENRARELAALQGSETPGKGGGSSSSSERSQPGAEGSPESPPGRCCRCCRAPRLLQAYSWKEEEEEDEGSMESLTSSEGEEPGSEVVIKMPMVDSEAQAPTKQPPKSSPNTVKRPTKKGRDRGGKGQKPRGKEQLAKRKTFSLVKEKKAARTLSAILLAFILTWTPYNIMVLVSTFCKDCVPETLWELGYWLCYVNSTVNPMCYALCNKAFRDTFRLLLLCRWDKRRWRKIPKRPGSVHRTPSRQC
Summary of the method: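 Male Wistar rat cortex membranes in 20 mM Hepes pH 7.4 were incubated with 1.0 nM (final) [3H]pirenzepine for 60 min at 20° C; nonspecific binding was defined with 1 μg/mL atropine. Filtration and scintillation counting were used, and IC50 was calculated from a single concentration assuming mass-action kinetics.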

[3] = ^3 HPRZ 1.0 nM, rat cortex, 60 min. at 20° C., read-out: ^3 HPRZ IC50 (head from b208 on: Pir IC-50)

| IC50 [2, 3] | Structure (SMILES) | IC50 [1] | IC50 [2] |
| --- | --- | --- | --- |
|  | c1ccc(SCCOc2nsnc2OC2CN3CCC2CC3)cc1 (racemic) [Compound 126, (±)-3-(2-[Phenylthio]ethoxy)-4-(1-azabicyclo[2.2.2]octyl-3-oxy)-1,2,5-thiadiazole] | 19 nM | 72 nM |
|  | c1nsnc1OCCOc1nsnc1OC1CN2CCC1CC2 (racemic) [Compound 132, (±)-3-(2-[3-{1,2,5-Thiadiazoyloxy}]ethoxy)-4-(1-azabicyclo[2.2.2]octyl-3-oxy)-1,2,5-thiadiazole] | 11 nM | 66 nM |
| 227 nM | CCCCOc1nsnc1OC1CCCNC1 (racemic) [Compound 134, (±)-3-Butyloxy-4-(3-piperidinyloxy)-1,2,5-thiadiazole] | 55 nM |  |
| 637 nM | CCCCSc1nsnc1O[C@@H]1CCC[C@H]1N(C)C (racemic) [Compound 143, (±)-trans-3-Butylthio-4-(2-dimethylaminocyclopentyloxy)-1,2,5-thiadiazole] | 1400 nM |  |
|  | c1ccc(CCCCSc2nsnc2OC2CN3CCC2CC3)cc1 (racemic) [Compound 148, (±)-3-(4-Phenylbutylthio)-4-(1-azabicyclo[2.2.2]octyl-3-oxy)-1,2,5-thiadiazole] | 8 nM | 25 nM |
|  | C(=Cc1ccccc1)CSc1nsnc1OC1CN2CCC1CC2 (racemic) [Compound 149, (±)-3-(3-Phenyl-2-propenylthio)-4-(1-azabicyclo[2.2.2]octyl-3-oxy)-1,2,5-thiadiazole] | 14 nM | 30 nM |
|  | O=C(CCSc1nsnc1OC1CN2CCC1CC2)c1ccc(F)cc1 (racemic) [Compound 150, (±)-3-(3-[4-Fluorophenyl]propan-3-onethio)-4-(1-azabicyclo[2,2.2]octyl-3-oxy)-1,2,5-thiadiazole] | 17 nM | 36 nM |
|  | FC(F)(F)CCCSc1nsnc1OC1CN2CCC1CC2 (racemic) [Compound 154, (±)-3-(4,4,4-trifluorobutylthio)-4-(1-azabicyclo[2.2.2]octyl-3-oxy)-1,2,5-thiadiazole] | 11 nM | 6.3 nM |
|  | c1cncc(CCCSc2nsnc2OC2CN3CCC2CC3)c1 (racemic) [Compound 155, (±)-3-(3-[3-pyridyl]propylthio)-4-(1-azabicyclo[2.2.2]octyl-3-oxy)-1,2,5-thiadiazole] | 3.4 nM | 8.8 nM |
|  | Fc1ccc(OCCSc2nsnc2OC2CN3CCC2CC3)cc1 (racemic) [Compound 207, (±)-3-(2-[4-fluorophenoxy]ethylthio)-4-(1-azabicyclo[2.2.2]octyl-3-oxy)-1,2,5-thiadiazole] | 2.4 nM | 6 nM |
| 18 nM | CCCCCSc1nsnc1O[C@H]1CN2CCC[C@H]1C2 (relative stereo) [Compound 23, (±)-exo-3-Pentylthio-4-(1-azabicyclo[3.2.1]octyl-6-oxy)-1,2,5-thiadiazole] | 55 nM |  |
| 19 nM | CCCCCSc1nsnc1O[C@@H]1CN2CCC[C@H]1C2 (relative stereo) [Compound 24, (±)-Endo-3-pentylthio-4-(1-azabicyclo[3.2.1]-octyl-6-oxy)-1,2,5-thiadiazole] | 19 nM |  |
|  | CCCCOc1nsnc1O[C@@H]1CN2CC[C@H]1C2 (relative stereo) [Compound 25, (±)-endo-3-Butyloxy-4-(1-azabicyclo[2.2.1]heptyl-3-oxy)-1,2,5-thiadiazol] | 1.8 nM | 2.1 nM |
|  | CCCCOc1nsnc1O[C@H]1CN2CC[C@H]1C2 (relative stereo) [Compound 26, (±)-Exo-3-butyloxy-4-(1-azabicyclo[2.2.1]heptyl-3-oxy)-1,2,5-thiadiazole] | 11 nM | 37 nM |
|  | Clc1nsnc1O[C@@H]1CN2CCC[C@@H]1C2 (relative stereo) [Compound 47, (±)-exo-3-Chloro-4-(1-azabicyclo[3.2.1]octyl-6-oxy)-1,2,5thiadiazole] | 54 nM | 23 nM |
|  | Clc1nsnc1O[C@H]1CN2CCC[C@@H]1C2 (relative stereo) [Compound 48, (±)-endo-3-Chloro-4-(1-azabicyclo [3.2.1]octyl-6-oxy)-1,2,5-thiadiazole] | 14 nM | 27 nM |
| 1.9 nM | N#Cc1ccc(CSc2nsnc2O[C@H]2CN3CCC[C@@H]2C3)cc1 (relative stereo) [Compound 49, (±)-endo-3-(4-Cyanobenzylthio)-4-(1-azabicyclo[3.2.1]octyl-6-oxy)-1,2,5-thiadiazole] | 1.8 nM |  |
| 0.65 nM | CCCCSc1nsnc1O[C@H]1CN2CCC[C@@H]1C2 (relative stereo) [Compound 70, (±)3-(1-Butylthio)-4-[endo-6-(1-azabicyclo[3.2.1]octyloxy)]-1,2,5-thiadiazole] | 1.3 nM |  |
| 1.15 nM | CCCCOc1nsnc1O[C@H]1CN2CCC[C@@H]1C2 (relative stereo) [Compound 71, 3-(1-Butyloxy)-4-[endo-(+,-)-6-(1-azabicyclo[3.2.1]octyloxy)]-1,2,5-thiadiazole] | 1.1 nM |  |
| 0.55 nM | c1ccc(CCCSc2nsnc2O[C@H]2CN3CCC[C@@H]2C3)cc1 (relative stereo) [Compound 72, (±)3-(3-Phenylpropylthio)-4-[endo-6-(1-azabicyclo[3.2.1].cent.octyloxy)]-1,2,5-thiadiazole] | 1.9 nM |  |
|  | CCCCSc1nsnc1O[C@@H]1CN2CC[C@@H]1C2 (relative stereo) [Compound 131, (±)exo-3-Butylthio-4-(1-azabicyclo[2.2.1]heptyl-3-oxy)-1,2,5-thiadiazole] | 5.6 nM | 46 nM |

| Structure (SMILES) | IC50 [2, 3] | IC50 [1] | IC50 [2] |
| --- | --- | --- | --- |
| c1ccc2c(OCCOc3nsnc3OC3CN4CCC3CC4)cccc2c1 (racemic) [Compound 127, (±)-3-(2-[1-Napthyloxy]ethoxy)-4-(1-azabicyclo [2.2.2]octyl-3-oxy)-1,2,5-thiadiazole] | 373 nM | 61 nM |  |
| Brc1ccc(OCCOc2nsnc2OC2CN3CCC2CC3)cc1 (racemic) [Compound 128, (±)-3-(2-[4-Bromophenoxy]ethoxy)-4-(1-azabicyclo[2.2.2]octyl-3-oxy)-1,2,5-thiadiazole] | 109 nM | 6.9 nM |  |
| c1ccc2c(c1)Sc1ccccc1N2CCCSc1nsnc1OC1CN2CCC1CC2 (racemic) [Compound 151, (±)-3-(3-[N-phenothiazinyl]propylthio)-4-(1-azabicyclo[2.2.2]octyl-3-oxy)-1,2,5-thiadiazole] | 2700 nM | 2070 nM |  |
| Fc1ccc(OC(CCSc2nsnc2OC2CN3CCC2CC3)c2ccc(F)cc2)cc1 (racemic) [Compound 152, (±)-3-(3-[4-fluorophenyl]-3-[4-fluorophenoxy]propylthio)-4-(1-azabicyclo[2.2.2]octyl-3-oxy)-1,2,5-thiadiazole] | 243 nM | 436 nM |  |
| FC(F)(F)c1ccc(OC(CCSc2nsnc2OC2CN3CCC2CC3)c2ccccc2)cc1 (racemic) [Compound 153, (±)-3-(3-Phenyl-3-[4-trifluoromethylphenoxy]propylthio)-4-(1-azabicyclo[2.2.2]octyl-3-oxy)-1,2,5-thiadiazole] | 205 nM | 597 nM |  |
| CCCCOc1nsnc1O[C@@H]1C[C@H]2CC(=O)C[C@@H]1N2C (relative stereo) [Compound 46, (±)-exo-3-Butyloxy-4-(6-(N-methyl-8-azabicyclo[3.2.1]octan-3-onoxy))-1,2,5-thiadiazole] | > 1000 nM | > 1000 nM |  |
